Measured values reported in patent US10519119B2, “Nicotinic acid derivatives, their preparation and the use thereof” (XIAMEN INSTITUTE OF RARE EARTH MATERIALS, priority 2017, dated 2019).

Tests used:
[1] = system: human lung cancer cell line A549; test: MTT test of activity in inhibiting human lung cancer cell A549; format: cell-based; conditions: for IC50: Homo sapiens, A549 cells, MTT method, cultivation 24 h with drug, OD at 595 nm; for inhibitory activity on lung cancer cell line A549: statement in words
Method: (§1) The specific test process was as follows:
(§2) (1) The lung cancer cell line A549 was plated in a 96-well plate and cultured in 100 μL medium. Until the cells were grown to 90%, 1 μL of the drug (i.e., the above example compounds) was added to the wells, each drug was tested for 8 different concentrations (the initial concentration of the drug, 50 μM, 5 μM, 500 nM, 50 nM, 5 nM, […], respectively), and each concentration of drug was experimented in 3 wells. After cultivation for 24 h, 20 μL of the already formulated 5 mg/mL MTT solution was added to each well, and the medium was aspirated after 4 hours, 150 μL DMSO was added to each well and its optical density (OD) value was measured at a wavelength of 595 nm. The negative control was DMSO.
(§3) The IC50 value was calculated by GraphPad Prism5 software.

[2] = system: colorectal cancer cell line HCT-116; test: MTT test of activity in inhibiting colorectal cancer cell line HCT-116; format: cell-based, human; conditions: for IC50: Homo sapiens, HCT-116 cells, MTT method, same procedure as A549; for inhibitory activity on colorectal cancer cell line HCT116: statement in words
Method: [The procedure below names another cell line; the source lists this cell line under the same test.] as §1, §2, §3

[3] = system: breast cancer cell line MCF-7; test: MTT test of activity in inhibiting breast cancer cell line MCF-7; format: cell-based, human; conditions: for IC50: Homo sapiens, MCF7, MCF-7 cells, MTT method, same procedure as A549; for inhibitory activity on breast cancer cell line MCF-7: statement in words
Method: [The procedure below names another cell line; the source lists this cell line under the same test.] as §1, §2, §3

Compound | IC50 [1] | inhibitory activity on lung cancer cell line A549 [1] | IC50 [2] | inhibitory activity on colorectal cancer cell line HCT116 [2] | IC50 [3] | inhibitory activity on breast cancer cell line MCF-7 [3]
COc1ccc(-c2cc(COC(=O)c3cc(Cl)cnc3Cl)on2)cc1 [YP-44] | 172 µM | strong inhibitory activity | 1640 µM | strong inhibitory activity | 149 µM | strong inhibitory activity
O=C(OCc1cc(-c2ccc(Cl)cc2)no1)c1cc(Cl)cnc1Cl [YP-51] | 187 µM | strong inhibitory activity |  | strong inhibitory activity |  | strong inhibitory activity
COc1ccc(-c2cc(COC(=O)c3ccc(C(F)(F)F)nc3)on2)cc1 [YP-63] | 154 µM | strong inhibitory activity | 287 µM | strong inhibitory activity | 132 µM | strong inhibitory activity
O=C(OCc1cc(-c2ccc(Br)cc2)no1)c1ccc(C(F)(F)F)nc1 [YP-73] | 207 µM | strong inhibitory activity |  | strong inhibitory activity | 43 µM | strong inhibitory activity
Cc1ccc(-c2cc(COC(=O)c3ccc(C(F)(F)F)nc3C)on2)cc1 [YP-78] | 198 µM | strong inhibitory activity | 72.5 µM | strong inhibitory activity | 160 µM | strong inhibitory activity
Cc1nc(C(F)(F)F)ccc1C(=O)OCc1cc(-c2ccc(Cl)cc2)no1 [YP-89] | 896 µM | strong inhibitory activity | 279 µM | strong inhibitory activity | 124 µM | strong inhibitory activity
O=C(OCc1cc(-c2ccc(Cl)cc2)no1)c1ccc(Oc2ccccc2)nc1 [YP-108] | 241 µM | strong inhibitory activity |  | strong inhibitory activity | 112 µM | strong inhibitory activity
